Reference: EP4722212A1, “NOVEL COMPOUND FOR INHIBITING PROTEIN KINASES AND PHARMACEUTICAL COMPOSITION COMPRISING SAME” (Magicbullettherapeutics Co., Ltd., priority 2023, dated 2024)
Like-named read-outs stand apart in the source and are kept apart here.

How the values were obtained:
Experiment in all cases: Kinase panel
Type in all cases: biochemical
ALK2/ACVR1 = ALK2/ACVR1 (Homo sapiens, UniProt Q04771); settings: ALK2/ACVR1, 1 µM; read-out: residual enzyme activity
How it was run: (§1)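 Residual enzyme activity is given for kinases screened biochemically with compound at a fixed 1 µM. Kinases showing ≤40% residual activity (≥60% inhibition) were identified as inhibited.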

ALK3/BMPR1A = ALK3/BMPR1A (Homo sapiens, UniProt P36894); settings: read-out: residual enzyme activity
How it was run: as §1

ARAF = settings: 1 µM
How it was run: as §1

AURORA C = AURORA C (Homo sapiens, UniProt Q9UQB9); settings: read-out: residual enzyme activity
How it was run: as §1

C-SRC = C-SRC (Homo sapiens, UniProt P12931); settings: read-out: residual enzyme activity
How it was run: as §1

CAMKK2 = CAMKK2 (Homo sapiens, UniProt Q96RR4); settings: CAMKK2, 1 µM; read-out: residual enzyme activity
How it was run: as §1

CDK4/CYCLIN D1 = CDK4/CYCLIN D1 (Homo sapiens, UniProt P11802); settings: CDK4/cyclin D1, 1 µM; read-out: residual enzyme activity
How it was run: as §1

CDK5/P35 = CDK5/P35 (Homo sapiens, UniProt Q00535); settings: read-out: residual enzyme activity
How it was run: as §1

COT1/MAP3K8 = COT1/MAP3K8 (Homo sapiens, UniProt P41279); settings: COT1/MAP3K8, 1 µM; read-out: residual enzyme activity
How it was run: as §1

CSK = CSK (Homo sapiens, UniProt P41240); settings: read-out: residual enzyme activity
How it was run: as §1

DCAMKL1 = DCAMKL1 (Homo sapiens, UniProt O15075); settings: DCAMKL1, 1 µM; read-out: residual enzyme activity
How it was run: as §1

DCAMKL2 = DCAMKL2 (Homo sapiens, UniProt Q8N568); settings: DCAMKL2, 1 µM; read-out: residual enzyme activity
How it was run: as §1

DRAK1/STK17A = DRAK1/STK17A (Homo sapiens, UniProt Q9UEE5); settings: read-out: residual enzyme activity
How it was run: as §1

EPHB3 = EPHB3 (Homo sapiens, UniProt P54753); settings: EPHB3, 1 µM; read-out: residual enzyme activity
How it was run: as §1

ERK5/MAPK7 = ERK5/MAPK7 (Homo sapiens, UniProt Q13164); settings: ERK5/MAPK7, 1 µM; read-out: residual enzyme activity
How it was run: as §1

GRK4 = GRK4 (Homo sapiens, UniProt P32298); settings: GRK4, 1 µM; read-out: residual enzyme activity
How it was run: as §1

HIPK2 = HIPK2 (Homo sapiens, UniProt Q9H2X6); settings: HIPK2, 1 µM; read-out: residual enzyme activity
How it was run: as §1

JAK3 = JAK3 (Homo sapiens, UniProt P52333); settings: JAK3, 1 µM; read-out: residual enzyme activity
How it was run: as §1

MAPKAPK3 = MAPKAPK3 (Homo sapiens, UniProt Q16644); settings: MAPKAPK3, 1 µM; read-out: residual enzyme activity
How it was run: as §1

MEKK1 = MEKK1 (Homo sapiens, UniProt Q13233); settings: MEKK1, 1 µM; read-out: residual enzyme activity
How it was run: as §1

MLCK2/MYLK2 = MLCK2/MYLK2 (Homo sapiens, UniProt Q9H1R3); settings: MLCK2/MYLK2, 1 µM; read-out: residual enzyme activity
How it was run: as §1

NEK9 = NEK9 (Homo sapiens, UniProt Q8TD19); settings: NEK9, 1 µM; read-out: residual enzyme activity
How it was run: as §1

PAK4 = PAK4 (Homo sapiens, UniProt O96013); settings: PAK4, 1 µM; read-out: residual enzyme activity
How it was run: as §1

PAK5 = PAK5 (Homo sapiens, UniProt Q9P286); settings: PAK5, 1 µM; read-out: residual enzyme activity
How it was run: as §1

PIM1 = PIM1 (Homo sapiens, UniProt P11309); settings: PIM1, 1 µM; read-out: residual enzyme activity
How it was run: as §1

PKCA = PKCA (Homo sapiens, UniProt P17252); settings: read-out: residual enzyme activity
How it was run: as §1

PLK4/SAK = PLK4/SAK (Homo sapiens, UniProt O00444); settings: read-out: residual enzyme activity
How it was run: as §1

RAF1 = RAF1 (Homo sapiens, UniProt P04049); settings: RAF1, 1 µM; read-out: residual enzyme activity
How it was run: as §1

ROS/ROS1 = ROS/ROS1 (Homo sapiens, UniProt P08922); settings: ROS/ROS1, 1 µM; read-out: residual enzyme activity
How it was run: as §1

SGK3/SGKL = SGK3/SGKL (Homo sapiens, UniProt Q96BR1); settings: read-out: residual enzyme activity
How it was run: as §1

STK21/CIT = STK21/CIT (Homo sapiens, UniProt O14578); settings: read-out: residual enzyme activity
How it was run: as §1

TAOK1 = TAOK1 (Homo sapiens, UniProt Q7L7X3); settings: TAOK1, 1 µM; read-out: residual enzyme activity
How it was run: as §1

TAOK2/TAO1 = TAOK2/TAO1 (Homo sapiens, UniProt Q9UL54); settings: TAOK2/TAO1, 1 µM; read-out: residual enzyme activity
How it was run: as §1

Chain of MEKK1 (Q13233 whole entry, species assumed): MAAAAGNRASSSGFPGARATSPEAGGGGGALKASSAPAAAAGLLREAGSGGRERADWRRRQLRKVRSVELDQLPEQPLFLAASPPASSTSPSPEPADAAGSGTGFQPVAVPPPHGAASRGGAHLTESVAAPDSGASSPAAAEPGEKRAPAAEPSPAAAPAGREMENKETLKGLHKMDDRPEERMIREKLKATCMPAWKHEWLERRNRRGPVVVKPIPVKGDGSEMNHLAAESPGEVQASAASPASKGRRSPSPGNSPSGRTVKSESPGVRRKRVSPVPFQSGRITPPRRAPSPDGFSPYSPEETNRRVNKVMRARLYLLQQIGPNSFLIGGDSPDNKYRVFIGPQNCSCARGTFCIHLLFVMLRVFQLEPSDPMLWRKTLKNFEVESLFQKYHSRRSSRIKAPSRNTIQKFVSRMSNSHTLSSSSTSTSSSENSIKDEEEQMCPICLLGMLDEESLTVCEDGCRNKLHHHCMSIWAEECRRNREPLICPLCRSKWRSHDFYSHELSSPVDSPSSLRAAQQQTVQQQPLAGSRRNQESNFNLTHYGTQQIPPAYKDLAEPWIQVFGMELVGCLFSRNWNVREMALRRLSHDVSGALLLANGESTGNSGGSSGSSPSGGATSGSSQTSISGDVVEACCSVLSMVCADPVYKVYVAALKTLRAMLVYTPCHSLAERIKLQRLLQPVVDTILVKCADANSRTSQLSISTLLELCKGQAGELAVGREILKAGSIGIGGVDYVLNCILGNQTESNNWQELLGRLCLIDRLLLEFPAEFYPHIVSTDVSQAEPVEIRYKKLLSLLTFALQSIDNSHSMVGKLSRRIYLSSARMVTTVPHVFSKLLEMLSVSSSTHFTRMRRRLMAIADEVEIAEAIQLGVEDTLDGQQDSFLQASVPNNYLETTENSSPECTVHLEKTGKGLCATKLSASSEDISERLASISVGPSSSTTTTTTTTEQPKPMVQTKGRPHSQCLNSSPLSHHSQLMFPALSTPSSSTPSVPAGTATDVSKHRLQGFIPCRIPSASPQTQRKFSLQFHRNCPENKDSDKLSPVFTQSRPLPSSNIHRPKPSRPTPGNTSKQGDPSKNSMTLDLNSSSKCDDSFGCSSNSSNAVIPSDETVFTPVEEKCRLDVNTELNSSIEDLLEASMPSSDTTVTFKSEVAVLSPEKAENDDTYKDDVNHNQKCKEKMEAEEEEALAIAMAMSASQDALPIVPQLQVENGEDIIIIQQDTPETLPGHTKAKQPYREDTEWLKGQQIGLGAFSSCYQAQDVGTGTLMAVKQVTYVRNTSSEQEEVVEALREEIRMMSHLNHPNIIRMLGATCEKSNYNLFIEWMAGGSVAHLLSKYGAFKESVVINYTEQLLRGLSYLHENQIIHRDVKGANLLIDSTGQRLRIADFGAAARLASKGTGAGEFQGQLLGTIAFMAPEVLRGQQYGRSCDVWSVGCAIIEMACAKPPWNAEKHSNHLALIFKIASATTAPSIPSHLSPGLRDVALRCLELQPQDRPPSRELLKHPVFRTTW
Chain of CDK5/P35 (Q00535 whole entry, species assumed): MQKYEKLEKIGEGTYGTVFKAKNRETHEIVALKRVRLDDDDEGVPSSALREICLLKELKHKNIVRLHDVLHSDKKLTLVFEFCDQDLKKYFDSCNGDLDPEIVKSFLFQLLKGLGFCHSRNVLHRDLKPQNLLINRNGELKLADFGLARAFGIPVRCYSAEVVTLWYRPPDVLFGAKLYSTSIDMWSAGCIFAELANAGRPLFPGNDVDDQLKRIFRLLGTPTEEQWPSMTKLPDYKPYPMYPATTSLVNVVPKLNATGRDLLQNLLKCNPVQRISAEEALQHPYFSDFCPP
Chain of CDK5/P35 (Q15078 2-307 partner limits assumed, species assumed): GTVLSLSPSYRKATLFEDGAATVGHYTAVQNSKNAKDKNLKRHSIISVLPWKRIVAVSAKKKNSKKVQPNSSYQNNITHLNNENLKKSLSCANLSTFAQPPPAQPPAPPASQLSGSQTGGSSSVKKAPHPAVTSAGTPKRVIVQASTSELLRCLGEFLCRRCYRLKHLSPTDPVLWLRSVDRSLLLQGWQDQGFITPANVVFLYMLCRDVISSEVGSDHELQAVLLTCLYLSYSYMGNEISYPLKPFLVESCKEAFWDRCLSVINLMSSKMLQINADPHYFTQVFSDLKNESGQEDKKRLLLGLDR
Chain of DRAK1/STK17A (Q9UEE5 whole entry): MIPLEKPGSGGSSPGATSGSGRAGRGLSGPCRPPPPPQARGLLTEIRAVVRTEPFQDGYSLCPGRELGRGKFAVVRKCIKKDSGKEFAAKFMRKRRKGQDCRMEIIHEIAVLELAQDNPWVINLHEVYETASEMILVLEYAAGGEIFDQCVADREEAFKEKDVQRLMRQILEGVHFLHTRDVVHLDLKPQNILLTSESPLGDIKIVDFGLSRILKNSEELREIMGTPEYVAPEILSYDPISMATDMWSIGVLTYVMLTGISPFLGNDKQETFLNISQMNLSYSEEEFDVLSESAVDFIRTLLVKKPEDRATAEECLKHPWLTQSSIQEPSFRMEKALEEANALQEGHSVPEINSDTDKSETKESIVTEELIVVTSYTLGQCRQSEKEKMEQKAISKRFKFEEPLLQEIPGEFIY
Chain of CAMKK2 (Q96RR4 whole entry, species assumed): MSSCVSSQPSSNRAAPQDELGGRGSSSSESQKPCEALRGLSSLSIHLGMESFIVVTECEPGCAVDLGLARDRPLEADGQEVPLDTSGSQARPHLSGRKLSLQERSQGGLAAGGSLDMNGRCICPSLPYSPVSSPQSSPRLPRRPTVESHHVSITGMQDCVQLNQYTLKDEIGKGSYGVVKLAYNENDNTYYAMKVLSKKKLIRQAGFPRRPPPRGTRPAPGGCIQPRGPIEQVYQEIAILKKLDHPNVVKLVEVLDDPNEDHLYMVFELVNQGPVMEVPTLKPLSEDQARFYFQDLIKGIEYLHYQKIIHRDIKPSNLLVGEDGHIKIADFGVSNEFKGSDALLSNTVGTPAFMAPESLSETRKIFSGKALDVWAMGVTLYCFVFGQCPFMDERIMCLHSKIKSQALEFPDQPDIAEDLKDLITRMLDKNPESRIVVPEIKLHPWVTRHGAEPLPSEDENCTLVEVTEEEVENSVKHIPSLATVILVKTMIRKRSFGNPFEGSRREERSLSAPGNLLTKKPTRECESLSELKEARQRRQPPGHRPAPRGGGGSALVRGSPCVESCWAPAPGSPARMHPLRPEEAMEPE
Chain of COT1/MAP3K8 (P41279 whole entry): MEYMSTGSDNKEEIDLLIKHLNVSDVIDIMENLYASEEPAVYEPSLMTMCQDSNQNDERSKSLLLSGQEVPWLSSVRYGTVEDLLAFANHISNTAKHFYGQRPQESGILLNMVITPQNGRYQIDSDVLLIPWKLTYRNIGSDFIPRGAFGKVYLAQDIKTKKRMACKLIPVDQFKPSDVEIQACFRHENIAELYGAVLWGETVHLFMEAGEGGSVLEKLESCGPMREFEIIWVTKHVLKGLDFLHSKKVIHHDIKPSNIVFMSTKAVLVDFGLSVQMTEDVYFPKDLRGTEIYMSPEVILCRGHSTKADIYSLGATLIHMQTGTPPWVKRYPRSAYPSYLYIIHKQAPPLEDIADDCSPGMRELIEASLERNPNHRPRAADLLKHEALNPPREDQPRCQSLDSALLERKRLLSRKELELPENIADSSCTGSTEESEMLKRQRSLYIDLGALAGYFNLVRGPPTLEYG
Chain of PAK4 (O96013 whole entry, species assumed): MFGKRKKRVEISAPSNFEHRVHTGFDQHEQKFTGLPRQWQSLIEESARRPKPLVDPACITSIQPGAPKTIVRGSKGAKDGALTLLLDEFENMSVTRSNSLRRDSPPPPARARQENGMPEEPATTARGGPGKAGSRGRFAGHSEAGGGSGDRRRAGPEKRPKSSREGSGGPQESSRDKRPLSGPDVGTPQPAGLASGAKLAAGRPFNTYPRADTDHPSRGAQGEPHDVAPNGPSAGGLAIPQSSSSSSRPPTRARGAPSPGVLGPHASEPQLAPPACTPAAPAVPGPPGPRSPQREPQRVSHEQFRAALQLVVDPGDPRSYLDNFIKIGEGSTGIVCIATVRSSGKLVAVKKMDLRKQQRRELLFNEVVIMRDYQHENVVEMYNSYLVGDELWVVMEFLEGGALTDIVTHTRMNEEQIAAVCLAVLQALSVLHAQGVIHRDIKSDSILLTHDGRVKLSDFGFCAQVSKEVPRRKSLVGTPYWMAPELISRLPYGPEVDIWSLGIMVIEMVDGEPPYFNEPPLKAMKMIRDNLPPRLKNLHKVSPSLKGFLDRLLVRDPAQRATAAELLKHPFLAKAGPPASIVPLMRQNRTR

SMILES	remaining activity at 1 µM (ALK2/ACVR1)	remaining activity at 1 µM (ALK3/BMPR1A)	residual enzyme activity (ARAF)	remaining activity at 1 µM (AURORA C)	remaining activity at 1 µM (CAMKK2)	remaining activity at 1 µM (CDK4/CYCLIN D1)	remaining activity at 1 µM (COT1/MAP3K8)	remaining activity at 1 µM (CSK)	remaining activity at 1 µM (DCAMKL1)	remaining activity at 1 µM (DCAMKL2)	remaining activity at 1 µM (DRAK1/STK17A)	remaining activity at 1 µM (EPHB3)	remaining activity at 1 µM (ERK5/MAPK7)	remaining activity at 1 µM (GRK4)	remaining activity at 1 µM (HIPK2)	remaining activity at 1 µM (JAK3)	remaining activity at 1 µM (MAPKAPK3)	remaining activity at 1 µM (MEKK1)	remaining activity at 1 µM (MLCK2/MYLK2)	remaining activity at 1 µM (NEK9)	also measured
Cc1cn(-c2cc(C(=O)Nc3ccc(C)c(N4Cc5cnc(NC6CC6)nc5C5(CC5)C4=O)c3)cc(C(F)(F)F)c2)cn1 [Compound 8, N-(3-(2'-(cyclopropylamino)-7'-oxo-5'H-spiro[cyclopropane-1,8'-pyrido[4,3-d]pyrimidine]-6'(7'H)-yl)-4-methylphenyl)-3-(4-methyl-1H-imidazol-1-yl)-5-(trifluoromethyl)benzamide]	> 40%	> 40%	O (residual enzyme activity values were 40% or less, i.e., inhibited by 60% or more)	> 40%	> 40%	> 40%	> 40%	≤ 40%	> 40%	> 40%	> 40%	≤ 40%	> 40%	> 40%	> 40%	≤ 40%	> 40%	> 40%	≤ 40%	> 40%	remaining activity at 1 µM (C-SRC; C-SRC): ≤ 40%; remaining activity at 1 µM (CDK5/P35; CDK5/P35, 1 µM): > 40%; remaining activity at 1 µM (PAK4): > 40%; remaining activity at 1 µM (PAK5): > 40%; remaining activity at 1 µM (PIM1): > 40%; remaining activity at 1 µM (PKCA): > 40%; remaining activity at 1 µM (PLK4/SAK): > 40%; remaining activity at 1 µM (RAF1): ≤ 40%; remaining activity at 1 µM (ROS/ROS1): ≤ 40%; remaining activity at 1 µM (SGK3/SGKL): > 40%; remaining activity at 1 µM (STK21/CIT): > 40%; remaining activity at 1 µM (TAOK1): ≤ 40%; remaining activity at 1 µM (TAOK2/TAO1): ≤ 40%
Cc1ccc(Nc2ncc3c(n2)C2(CC2)C(=O)N(c2cc(NC(=O)c4cccc(C(F)(F)F)c4)ccc2C)C3)cn1 [Compound 51, N-(4-methyl-3-(2'-((6-methylpyridin-3-yl)amino)-7'-oxo-5'H-spiro[cyclopropane-1,8'-pyrido[4,3-d]pyrimidine]-6'(7'H)-yl)phenyl)-3-(trifluoromethyl)benzamide]	> 40%	> 40%	O (residual enzyme activity values were 40% or less, i.e., inhibited by 60% or more)	> 40%	> 40%	> 40%	> 40%	≤ 40%	> 40%	> 40%	> 40%	≤ 40%	> 40%	> 40%	> 40%	≤ 40%	> 40%	> 40%	≤ 40%	> 40%	remaining activity at 1 µM (C-SRC; c-Src): ≤ 40%; remaining activity at 1 µM (CDK5/P35; CDK5/p35, 1 µM): > 40%; remaining activity at 1 µM (PAK4): > 40%; remaining activity at 1 µM (PAK5): > 40%; remaining activity at 1 µM (PIM1): > 40%; remaining activity at 1 µM (PKCA): > 40%; remaining activity at 1 µM (PLK4/SAK): > 40%; remaining activity at 1 µM (RAF1): ≤ 40%; remaining activity at 1 µM (ROS/ROS1): ≤ 40%; remaining activity at 1 µM (SGK3/SGKL): > 40%; remaining activity at 1 µM (STK21/CIT): > 40%; remaining activity at 1 µM (TAOK1): ≤ 40%; remaining activity at 1 µM (TAOK2/TAO1): ≤ 40%
